Series [1] can be described thus: Gastric stability of vitamin D3 in simulated gastric fluid (LC-MS). The series is classed as in vitro ADME. Conditions: 2 h, 37° C., pH 3, pepsin. The procedure: Degradation of VD3 under the simulated gastric conditions was performed on free VD3 and encapsulated VD3. The simulated gastric fluid (SGF) was prepared according to the method of Minekus et al. (2014). In summary, electrolyte solution was prepared in Milli-Q water at 1.25× of the final concentration and stored at 37° C. To prepare 10 mL solution to be used in the digestion procedure: 7.5 mL SGF, 6 mg pepsin solubilized in 1.6 mL SGF, 5 μL of 0.3 M CaCl2(H2O)2 prepared in water and filtered through a 0.22 μm PSE syringe filter. The pH value was corrected to reach 3, and if needed, water was added to reach 10mL (approximately […]). The solution was then placed in a 37° C. incubator to equilibrate. Cream separated at the end of the incubation period with VD3 was suspended in water at 8% w/v and allowed to briefly incubate at 37° C.
The separated cream (250 mg) containing VD3, obtained as described before, was added to 5 mL of SGF. For the digestion of free VD3 in methanol, 25 μL of 40 mg/mL solution was added to […] of SGF. Solutions were briefly purged with nitrogen and sealed securely. Simulated digestion was carried for 2h at 37° C. At the end of the incubation step, ethanolic pyrogallol solution (10 mL, 1% w/v) was added and vortexed vigorously. Potassium hydroxide (2 mL, 50%w/v) was then added and mixed. […]

The nature of series [2]: Loading of vitamin D3 in ovine milk fat globules. The series is classed as physicochemical. Conditions: for EE %, 1% v/v ethanol / EE %, 10% v/v ethanol / LY, 1% v/v ethanol / LY, 10% v/v ethanol: Ovine MFGs, 30 minutes. On the procedure:
Raw milk was diluted with Milli-Q water at 9:1 water to milk. Cream was separated from diluted milk via centrifugation at 3,000×g for 5 min. Cream was collected and reconstituted in water at 4% w/v concentration. The mixture was then further centrifuged at 3,000×g for 5 min. The cream was then collected and reconstituted to desired weight/volume in water (20% w/v in water).
Encapsulation of VD3 was achieved by incubation of compound's ethanolic solution with 20% w/v cream suspended in water. Once well mixed by gently inverting the tube, the contents were allowed to incubate in the dark. […] Significant values were reported with a 95% confidence interval, i.e. p<0.05.
At the end of the incubation period with VD3, cream was separated by centrifuging the suspension at 3,000×g for 5 min Cream was skimmed off the top with particular care not to include any of the aqueous phase. Methanol was added at 50 mg/mL and vortexed vigorously for 1 min. The mixture was then centrifuged at 3,000×g for 30 min. Liquid phase was collected and absorbance was measured at 264 nm. Absorbance blank was prepared fresh during every encapsulation run by introducing ethanol to cream suspended in water. Absorbance of the blank was subtracted from test samples to remove the absorbance of solvent, lipids, and other MFGs components. All experiments were conducted in triplicates.
Fat content in cream was measured to calculate the loading yield. The fat was isolated using the same set of preparation steps detailed in Example 13 with the addition of the last centrifugation step to recover cream after at the end of the loading process. The total fat content was determined using a modified Folch method (Folch, Lees, & Sloane-Stanley, 1957) where an additional step of washing the chloroform/water interface with 1:1 water/methanol solution was added to remove milk serum components. The loading yield of VD3 in milk fat was calculated as follows: […]
where CE is the VD3 extracted from MFGs (μg), and MF is the mass of milk fat (g) in MFGs suspension. The extraction procedure was conducted in triplicates using independent milk samples.

Usually logP stands for the decadic logarithm of the partition coefficient of the neutral form, usually between octanol and water. Read a high logP as higher lipophilicity.

Excerpt for physchem: One such molecular property that is used to predict partitioning potential is the octanol—water partition coefficient; Log P, which is the logarithm of the ratio of the solute concentration in the octanol phase to the solute concentration in the water phase, at a defined temperature.

Regarding `C=C1CC[C@H](O)C/C1=C/C=C1\CCC[C@]2(C)[C@@H]([C@H](C)CCCC(C)C)CC[C@@H]12` [Cholecalciferol], the figures for the “degradation/loss of VD3 in simulated gastric fluid” value in series [1] (listed as free VD3) and in series [1] (listed as un-encapsulated VD3) were “approximately 6%” and “approximately 8%”, respectively. The “EE %, 1% v/v ethanol” value in series [2] (50 μM) is given as 11.75 ± 0.44%; in series [2] (100 μM), 10.70 ± 3.12%; in series [2] (150 μM), 10.17 ± 0.67%; in series [2] (200 μM) it was 8.49 ± 1.65%; in series [2] (250 μM) it was 8.13 ± 1.27%. The “EE %, 10% v/v ethanol” value stood at 37.83 ± 10.36% in series [2] (50 μM); 20.29 ± 4.85 % in series [2] (100 μM); 18.95 ± 6.34 % in series [2] (150 μM); 14.30 ± 3.90 % in series [2] (200 μM); 10.31 ± 1.14 % in series [2] (250 μM). For the same compound, the “LY, 1% v/v ethanol” value in series [2] (50 μM) is recorded as 11.17 ± 0.41 μg of VD3 per gram of milk fat; in series [2] (100 μM) it was 20.35 ± 5.93 μg of VD3 per gram of milk fat; in series [2] (150 μM) it was 29.01 ± 1.92 μg of VD3 per gram of milk fat; in series [2] (200 μM), 32.28 ± 6.26 μg of VD3 per gram of milk fat; in series [2] (250 μM) it was 38.62 ± 6.06 μg of VD3 per gram of milk fat. Besides, the “LY, 10% v/v ethanol” value in series [2] (50 μM) is on record as 35.95 ± 9.85 μg of VD3 per gram of milk fat; in series [2] (100 μM), 38.56 ± 9.23 μg of VD3 per gram of milk fat; in series [2] (150 μM), 54.03 ± 18.08 μg of VD3 per gram of milk fat; in series [2] (200 μM), 54.33 ± 14.83 μg of VD3 per gram of milk fat; in series [2] (250 μM), 49.00 ± 5.43 μg of VD3 per gram of milk fat. The “VD3 loaded into MFGs (up to)” value in series [2] (ovine MFGs) is no more than 54 μg/g milk fat. In the series “physchem”, the logP is roughly 7.5.

The values above are taken from patent US20220175675A1, “ENCAPSULATING MOLECULES IN FAT GLOBULES” (The Regents of the University of California, priority 2019, published 2022).
